In the C3SDB collision cross section collection:
“And” between values parts separate entries of the source, which are not always exact repeats. Identical values can stand only once.

Details: instrument: DT, stepped-field

SMILES | collision cross section (N2) ([M+H]+) | collision cross section (N2) ([M+Na]+) | collision cross section (N2) ([M]+)
CC(=O)SCCNC(=O)CCNC(=O)[C@H](O)C(C)(C)COP(=O)(O)OP(=O)(O)OC[C@H]1O[C@@H](n2cnc3c(N)ncnc32)[C@H](O)[C@@H]1OP(=O)(O)O [Acetyl coenzyme A] | 249.8 Å² | 263.07 Å² | 
Nc1ncnc2c1ncn2[C@@H]1O[C@H](COP(=O)(O)O)[C@@H](O)[C@H]1O [Adenosine 5' Monophosphate] | 173.33 Å² | 180.73 Å² | 
O=c1cc(-c2ccc(O)c(-c3c(O)cc(O)c4c(=O)cc(-c5ccc(O)cc5)oc34)c2)oc2cc(O)cc(O)c12 [Amentoflavone] | 230.16 Å² |  | 
Nc1ccccc1S(=O)(=O)O [Aniline-2-sulfonic Acid] |  | 153.23 Å² | 
C[C@]12CC[C@@H](O)C[C@H]1CC[C@@H]1[C@@H]2[C@@H](O)C[C@@]2(C)[C@H]1CC[C@]2(O)[C@H](O)CO [B-Cortol] |  | 204.59 Å² | 
O=C1c2ccccc2-c2cccc3cccc1c23 [Benzanthrone] | 145.71 Å² |  | 
c1ccc2cc3c(cc2c1)-c1cccc2cccc-3c12 [Benzo(k)fluoranthene] | 154.36 Å² |  | 
NCCCNCCCN [Bis(3-aminopropyl)amine] | 128.52 Å² |  | 
Oc1cc(O)c2c(c1)O[C@H](c1ccc(O)c(O)c1)[C@@H](O)C2 [Catechin] | 165.18 Å² | 184.42 Å² | 
OC[C@H]1O[C@@H](O[C@H]2[C@H](O)[C@@H](O)[C@H](O[C@H]3[C@H](O)[C@@H](O)C(O)O[C@@H]3CO)O[C@@H]2CO)[C@H](O)[C@@H](O)[C@@H]1O (some centres not stated) [Cellotriose] |  | 215.69 Å² | 
C[C@]12CCC(=O)C=C1CC[C@@H]1[C@@H]2[C@@H](O)C[C@@]2(C)[C@H]1CC[C@]2(O)C(=O)CO [Cortisol] | 188.88 Å² | 213.91 Å² | 
N[C@H]1C(O)O[C@H](CO)[C@@H](O)[C@@H]1O (stereo partly drawn) [D-Glucosamine] | 135.59 Å² | 147.19 Å² | 
CC(C)(CO)[C@@H](O)C(=O)NCCC(=O)O [D-Pantothenic Acid] | 150.17 Å² | 155.27 Å² | 
O=c1c(-c2ccc(O)cc2)coc2cc(O)ccc12 [Daidzein] | 157.23 Å² | 173.13 Å² | 
C[N+](C)(C)CCCC(=O)[O-] [Deoxycarnitine] | 130.4 Å² |  | 
O=c1ccn([C@H]2C[C@H](O)[C@@H](CO)O2)c(=O)[nH]1 [Deoxyuridine] |  | 159.45 Å² | 
COc1c(Cl)ccc(Cl)c1C(=O)O [Dicamba] |  | 157.21 Å² | 
OCCNCCO [Diethanolamine] | 123.33 Å² |  | 
O=C(CO)COP(=O)(O)O [Dihydroxyacetone Phosphate] |  | 144.07 Å² | 
CC/C=C\C/C=C\C/C=C\C/C=C\C/C=C\C/C=C\CCC(=O)O [Docosahexaenoic Acid] | 184.62 Å² | 185.06 Å² | 
COc1ccc(-c2coc3cc(O)ccc3c2=O)cc1 [Formononetin] |  | 176.14 Å² | 
O=C(CO)[C@@H](O)[C@H](O)[C@H](O)COP(=O)(O)O [Fructose-6-phosphate] |  | 156.44 Å² | 

SMILES | collision cross section (N2) ([M+H]+) | collision cross section (N2) ([M+Na]+) | collision cross section (N2) ([M]+)
O=C(O)/C=C/C(=O)O [Fumaric Acid] |  | 133.58 Å² | 
COC(=O)c1c(Cl)nn(C)c1S(=O)(=O)NC(=O)Nc1nc(OC)cc(OC)n1 [Halosulfuron-methyl] | 196.48 Å² | 201.41 Å² | 
COc1ccc([C@@H]2CC(=O)c3c(O)cc(O)cc3O2)cc1O [Hesperetin] | 176.54 Å² | 184.45 Å² | 
O=C(O)CNC(=O)c1ccccc1 [Hippuric Acid] | 146.82 Å² | 154.06 Å² | 
COc1cc(CC(=O)O)ccc1O [Homovanillic Acid] |  | 149.57 Å² | 
CCCCC/C=C\C/C=C\CCCCCCCCCC(=O)O [Icosadienoic Acid] |  | 184.05 Å² | 
O=C(O)Cc1cnc[nH]1 [Imidazole-4-acetic Acid] | 128.23 Å² | 148.03 Å² | 
Cc1ccc2c(c1)[C@H](Nc1nc(N)nc(C(C)F)n1)[C@@H](C)C2 (some centres not stated) [Indaziflam] | 169.27 Å² | 174.6 Å² | 
O=C(O)Cc1c[nH]c2ccccc12 [Indoleacetic Acid] | 138.11 Å² |  | 
COc1ccc2c(c1)c(CC(=O)O)c(C)n2C(=O)c1ccc(Cl)cc1 [Indomethacin] | 183.55 Å² | 195.98 Å² | 
OC[C@H]1O[C@H](OC[C@H]2O[C@H](OC[C@H]3OC(O)[C@H](O)[C@@H](O)[C@@H]3O)[C@H](O)[C@@H](O)[C@@H]2O)[C@H](O)[C@@H](O)[C@@H]1O (some centres not stated) [Isomaltotriose] |  | 210.83 Å² | 
O=C(O)c1cc(=O)c2ccccc2[nH]1 [Kynurenic Acid] | 140.99 Å² | 154.12 Å² | 
Nc1ccccc1C(=O)CC(N)C(=O)O (configuration not stated) [Kynurenine] | 151.07 Å² |  | 
OC1OC[C@H](O)[C@H](O)[C@H]1O (stereo partly drawn) [L-Arabinose] |  | 141.86 Å² | 
O=C1O[C@H]([C@@H](O)CO)C(O)=C1O [L-Ascorbic Acid] |  | 146.11 Å² | 
NCCC[C@H](N)C(=O)O [L-Ornithine] | 129.79 Å² |  | 
C[C@@H]1OC(O)[C@H](O)[C@H](O)[C@H]1O (stereo partly drawn) [L-Rhamnose] |  | 146.3 Å² | 
O=C(O)[C@@H](O)[C@@H](O)[C@@H](O)CO [L-Ribonic Acid] |  | 143.47 Å² | 
C[Se]CC[C@H](N)C(=O)O [L-Selenomethionine] | 137.67 Å² |  | 
N[C@@H](Cc1c[nH]c2ccccc12)C(=O)O [L-Tryptophan] | 154.22 Å² |  | 
CC(C)[C@H](N)C(=O)O [L-Valine] | 134.28 Å² | 144.07 Å² | 
CCCCCCCC/C=C\CCCCCCCC(=O)OC[C@@H](O)COP(=O)([O-])OCC[N+](C)(C)C [LPC 18:1] |  | 237.34 Å² | 

SMILES | collision cross section (N2) ([M+H]+) | collision cross section (N2) ([M+Na]+) | collision cross section (N2) ([M]+)
CCCCCCCCCCCCCCCC/C=C\OC[C@@H](O)COP(=O)([O-])OCC[N+](C)(C)C [LPC(p18:0)] | 236.8 Å² | 238.37 Å² | 
OC[C@H]1O[C@@H](O[C@@H]2[C@@H](CO)O[C@](O)(CO)[C@H]2O)[C@H](O)[C@@H](O)[C@H]1O [Lactulose] |  | 180.1 Å² | 
COc1cc(-c2[o+]c3cc(O)cc(O)c3cc2O)cc(OC)c1O [Malvidin] |  |  | 178.55 Å²
O=c1c2cc(O)c(O)cc2oc2cc(O)c([C@@H]3O[C@H](CO)[C@@H](O)[C@H](O)[C@H]3O)c(O)c12 [Mangiferin] | 196.62 Å² |  | 
C=CCc1ccc(OC)c(OC)c1 [Methyleugenol] | 138.94 Å² | 160.36 Å² | 
CC(=O)N[C@H](Cc1c[nH]c2ccccc12)C(=O)O [N-Acetyl-D-tryptophan] | 155.67 Å² | 162.74 Å² | 
CC(=O)N[C@@H](CC(=O)O)C(=O)O [N-Acetyl-L-aspartic Acid] |  | 143.7 Å² | 
CSCC[C@H](NC=O)C(=O)O [N-Formyl-L-methionine] |  | 149.53 Å² | 
COc1ccc2cc([C@H](C)C(=O)O)ccc2c1 [Naproxen] | 154.83 Å² | 163.87 Å² | 
NC(=O)c1ccc[n+]([C@@H]2O[C@H](COP(=O)([O-])O)[C@@H](O)[C@H]2O)c1 [Nicotinamide Mononucleotide] | 167.13 Å² |  | 
N[C@@H](CCOC(=O)CCC(=O)O)C(=O)O [O-Succinyl-L-homoserine] | 147.46 Å² | 147.22 Å² | 
O=C(O)c1cc(=O)[nH]c(=O)[nH]1 [Orotic Acid] | 138.85 Å² | 181.87 Å² | 
CCCCCCCC/C=C/CCCCCCCC(=O)OC[C@H](COP(=O)(O)OC[C@@H](O)CO)OC(=O)CCCCCCC/C=C/CCCCCCCC [PG(18:1/18:1)] | 294.47 Å² and 294.81 Å² | 285.26 Å² and 289.31 Å² | 
CCCCCCCCCCCCCCCC(=O)O [Palmitic Acid] |  | 185.22 Å² | 
CCCCC[C@@H](/C=C/[C@@H]1[C@@H](C/C=C\CCCC(=O)O)[C@@H]2C[C@H]1OO2)OO [Prostaglandin G2] |  | 199.3 Å² | 
COc1cc(O)c2c(=O)c(-c3ccc(O)cc3)coc2c1 [Prunetin] | 166.26 Å² | 181.44 Å² | 
O=C(O)c1cccnc1C(=O)O [Quinolinic Acid] | 138.98 Å² |  | 
CC/C=C\C[C@H](O)/C=C/C=C\C=C\C=C\[C@@H](O)[C@@H](O)C/C=C\CCC(=O)O [Resolvin D1] |  | 197.87 Å² | 
Cc1cc2nc3c(=O)[nH]c(=O)nc-3n(C[C@H](O)[C@H](O)[C@H](O)COP(=O)(O)O)c2cc1C [Riboflavin 5'-Monophosphate] | 201.48 Å² | 210.66 Å² | 
Cc1cc2nc3c(=O)[nH]c(=O)nc-3n(C[C@H](O)[C@H](O)[C@H](O)CO)c2cc1C [Riboflavin] | 192.43 Å² | 199.4 Å² | 
C=C(C)[C@H]1Cc2c(ccc3c2O[C@@H]2COc4cc(OC)c(OC)cc4[C@@H]2C3=O)O1 [Rotenone] | 199.63 Å² | 213.17 Å² | 
